Test results taken from ChEMBL document CHEMBL5634084, “Design and optimization of selective and potent CDK9 inhibitors with flavonoid scaffold for the treatment of acute myeloid leukemia” (Eur J Med Chem, 2023).
Calls of active or inactive are those of the source. No cut-off for these calls is given here.

Columns and labels:
[1] = molecular target: Cyclin-dependent kinase 4/cyclin D1 (Homo sapiens) (UniProt P11802+P24385); experiment: Inhibition of wild type full length human CDK4 (1 to 303 residues)/CyclinD1 expressed in mammalian expression system at 1 uM by KINOMEscan analysis
[2] = molecular target: Cyclin-dependent kinase 9 (Homo sapiens) (UniProt P50750); experiment: Inhibition of CDK9 in human MV4-11 cells assessed as reduction in Mcl-1 protein expression incubated for 12 hrs by western blot analysis; format: cell-based; details: dose 0.1-4 µM
Chain of Cyclin-dependent kinase 9 (Homo sapiens) (P50750 whole entry): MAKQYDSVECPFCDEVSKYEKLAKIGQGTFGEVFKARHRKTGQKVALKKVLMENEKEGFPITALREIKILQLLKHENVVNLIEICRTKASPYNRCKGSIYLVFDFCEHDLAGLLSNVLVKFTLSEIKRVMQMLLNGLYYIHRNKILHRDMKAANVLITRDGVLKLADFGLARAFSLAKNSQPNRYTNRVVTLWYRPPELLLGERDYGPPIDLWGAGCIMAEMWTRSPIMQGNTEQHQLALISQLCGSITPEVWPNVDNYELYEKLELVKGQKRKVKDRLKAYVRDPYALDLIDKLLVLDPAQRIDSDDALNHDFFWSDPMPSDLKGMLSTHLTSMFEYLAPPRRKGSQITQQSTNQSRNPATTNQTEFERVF

THP-1 = experiment: Antiproliferative activity against human THP-1 cells assessed as reduction in cell viability measured after 72 hrs; format: functional, cell-based; details: THP-1, 72 h
MV4-11 [3] = experiment: Induction of apoptosis in human MV4-11 cells assessed as increase in cleaved caspase 3 protein expression incubated for 24 hrs by western blot analysis; format: functional, cell-based; details: dose 0.1-4 µM
[4] = Metabolic stability of the compound in mouse liver microsomes at 10 uM measured for 60 mins in presence of NADPH by LC-MS/MS analysis; format: ADME, Microsome; details: 1 h
MV4-11 [5] = experiment: Induction of cell cycle arrest in human MV4-11 cells assessed as accumulation of cells at G2/M phase at 0.4 uM incubated fo 36 hrs by propidium iodide staining based flow cytometry (reference value: 9.5%); format: functional
[6] = molecular target: Serine/threonine-protein kinase SIK3 (Homo sapiens) (UniProt Q9Y2K2); experiment: Inhibition of wild type partial length human QSK (90 to 395 residues) expressed in mammalian expression system at 1 uM by KINOMEscan analysis
MV4-11 [7] = experiment: Downregulation of cyclin T1 protein expression in human MV4-11 cells incubated for 12 hrs by western blot analysis; format: functional, cell-based; details: dose 0.1-4 µM
MCF7 = experiment: Antiproliferative activity against human MCF7 cells assessed as reduction in cell viability measured after 72 hrs; format: functional, cell-based; details: MCF7, 72 h
HL-60 = experiment: Antiproliferative activity against human HL-60 cells assessed as reduction in cell viability measured after 72 hrs; format: functional, cell-based; details: HL-60, 72 h
[8] = molecular target: Cyclin-dependent kinase 12 (Homo sapiens) (UniProt Q9NYV4); experiment: Inhibition of wild type partial length human CDK12 (697 to 1077 residues) to expressed in mammalian expression system at 1 uM by KINOMEscan analysis
Chain of Cyclin-dependent kinase 12 (Homo sapiens) (Q9NYV4 whole entry, looked up, the tested form may be a part): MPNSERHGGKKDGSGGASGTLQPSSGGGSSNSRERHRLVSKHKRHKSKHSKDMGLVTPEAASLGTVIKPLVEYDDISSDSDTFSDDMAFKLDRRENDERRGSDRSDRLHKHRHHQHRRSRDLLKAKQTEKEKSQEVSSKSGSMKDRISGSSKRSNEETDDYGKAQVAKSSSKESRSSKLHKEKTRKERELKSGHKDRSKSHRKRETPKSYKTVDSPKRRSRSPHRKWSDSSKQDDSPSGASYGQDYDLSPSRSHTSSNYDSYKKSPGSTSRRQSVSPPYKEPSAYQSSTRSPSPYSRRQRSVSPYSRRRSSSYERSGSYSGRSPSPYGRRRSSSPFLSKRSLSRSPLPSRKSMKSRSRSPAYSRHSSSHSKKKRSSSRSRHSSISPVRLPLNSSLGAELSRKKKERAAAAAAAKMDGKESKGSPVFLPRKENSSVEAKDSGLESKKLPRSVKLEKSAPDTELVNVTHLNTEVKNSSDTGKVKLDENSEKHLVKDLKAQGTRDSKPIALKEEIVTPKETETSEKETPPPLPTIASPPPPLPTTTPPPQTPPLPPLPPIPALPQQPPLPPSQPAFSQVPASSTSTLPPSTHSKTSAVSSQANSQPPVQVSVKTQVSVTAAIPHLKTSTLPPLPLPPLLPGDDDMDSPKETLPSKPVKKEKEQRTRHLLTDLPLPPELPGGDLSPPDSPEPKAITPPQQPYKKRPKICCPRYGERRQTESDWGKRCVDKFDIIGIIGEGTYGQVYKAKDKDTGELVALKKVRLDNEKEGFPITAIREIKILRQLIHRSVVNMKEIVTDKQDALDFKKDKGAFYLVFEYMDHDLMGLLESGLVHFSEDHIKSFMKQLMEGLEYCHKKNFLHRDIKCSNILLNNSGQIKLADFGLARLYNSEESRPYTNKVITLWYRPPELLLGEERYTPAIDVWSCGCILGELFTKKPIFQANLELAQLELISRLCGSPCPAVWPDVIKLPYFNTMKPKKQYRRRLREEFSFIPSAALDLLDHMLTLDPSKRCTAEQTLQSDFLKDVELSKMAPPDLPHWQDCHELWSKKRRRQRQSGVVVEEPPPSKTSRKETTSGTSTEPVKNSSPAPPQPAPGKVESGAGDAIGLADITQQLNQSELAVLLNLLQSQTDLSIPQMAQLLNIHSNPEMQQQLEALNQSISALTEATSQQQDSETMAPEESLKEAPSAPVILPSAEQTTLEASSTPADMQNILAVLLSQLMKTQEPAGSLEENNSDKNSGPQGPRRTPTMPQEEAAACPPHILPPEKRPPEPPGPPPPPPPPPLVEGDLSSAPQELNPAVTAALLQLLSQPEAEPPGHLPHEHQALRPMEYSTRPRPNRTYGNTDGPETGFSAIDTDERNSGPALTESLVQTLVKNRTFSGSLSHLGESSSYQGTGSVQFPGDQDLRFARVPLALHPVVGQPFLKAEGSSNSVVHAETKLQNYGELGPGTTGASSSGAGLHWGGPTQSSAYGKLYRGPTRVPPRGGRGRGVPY

MV4-11 [9] = experiment: Induction of apoptosis in human MV4-11 cells assessed as necrotic cells at 2 uM incubated for 24 hrs by AnnexinV-FITC/PI staining based flow cytometry (reference value: 0%); format: functional
MV4-11 [10] = experiment: Induction of apoptosis in human MV4-11 cells assessed as viable cells at 2 uM incubated for 24 hrs by AnnexinV-FITC/PI staining based flow cytometry (reference value: 93.4%); format: functional; details: read-out: Activity
MV4-11 [11] = experiment: Induction of cell cycle arrest in human MV4-11 cells assessed as accumulation of cells at G2/M phase at 0.2 uM incubated fo 36 hrs by propidium iodide staining based flow cytometry (reference value: 9.5%); format: functional
MV4-11 [12] = experiment: Induction of cell cycle arrest in human MV4-11 cells assessed as accumulation of cells at G0/G1 phase at 0.2 uM incubated fo 36 hrs by propidium iodide staining based flow cytometry (reference value: 64%); format: functional
SW480 = experiment: Antiproliferative activity against human SW480 cells assessed as reduction in cell viability measured after 72 hrs; format: functional, cell-based; details: SW480, 72 h
MV4-11 [13] = experiment: Induction of cell cycle arrest in human MV4-11 cells assessed as accumulation of cells at S phase at 0.2 uM incubated fo 36 hrs by propidium iodide staining based flow cytometry (reference value: 26.5%); format: functional
[14] = molecular target: Calcium-dependent protein kinase 1 (Plasmodium falciparum) (UniProt P62344); experiment: Inhibition of wild type full length Plasmodium falciparum PFCDPK1 (1 to 524 residues) expressed in mammalian expression system at 1 uM by KINOMEscan analysis
Chain of Calcium-dependent protein kinase 1 (Plasmodium falciparum) (P62344 2-524 limits assumed): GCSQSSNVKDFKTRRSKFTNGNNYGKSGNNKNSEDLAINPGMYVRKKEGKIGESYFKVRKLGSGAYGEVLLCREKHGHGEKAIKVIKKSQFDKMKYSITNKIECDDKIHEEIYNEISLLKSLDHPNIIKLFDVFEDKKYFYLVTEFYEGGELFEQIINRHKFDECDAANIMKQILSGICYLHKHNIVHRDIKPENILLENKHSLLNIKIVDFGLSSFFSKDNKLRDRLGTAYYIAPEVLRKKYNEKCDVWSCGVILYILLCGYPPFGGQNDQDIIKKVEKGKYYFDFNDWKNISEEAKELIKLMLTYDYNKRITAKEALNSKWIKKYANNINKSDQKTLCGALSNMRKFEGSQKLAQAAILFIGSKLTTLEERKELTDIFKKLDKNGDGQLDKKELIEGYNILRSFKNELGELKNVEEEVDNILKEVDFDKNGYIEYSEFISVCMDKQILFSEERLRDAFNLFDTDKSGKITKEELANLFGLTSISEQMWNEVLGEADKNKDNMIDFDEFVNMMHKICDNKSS

MV4-11 [15] = experiment: Induction of apoptosis in human MV4-11 cells assessed as viable cells at 0.1 uM incubated for 24 hrs by AnnexinV-FITC/PI staining based flow cytometry (reference value: 93.4%); format: functional; details: read-out: Activity
[16] = molecular target: MAP kinase-interacting serine/threonine-protein kinase 2 (Homo sapiens) (UniProt Q9HBH9); experiment: Inhibition of wild type partial length human MKNK2 (63 to 388 residues) expressed in mammalian expression system at 1 uM by KINOMEscan analysis
MV4-11 [17] = experiment: Induction of apoptosis in human MV4-11 cells assessed as necrotic cells at 0.5 uM incubated for 24 hrs by AnnexinV-FITC/PI staining based flow cytometry (reference value: 0%); format: functional
CDK2/Cyclin A2 = CDK2/Cyclin A2 (Homo sapiens, UniProt P24941); experiment: Inhibition of CDK2/CyclinA2 (unknown origin) by ADP-Glo assay; format: protein-complex assay
MV4-11 [18] = experiment: Induction of cell cycle arrest in human MV4-11 cells assessed as accumulation of cells at G0/G1 phase at 0.8 uM incubated fo 36 hrs by propidium iodide staining based flow cytometry (reference value: 64%); format: functional
MV4-11 [19] = experiment: Induction of apoptosis in human MV4-11 cells assessed as necrotic cells at 4 uM incubated for 24 hrs by AnnexinV-FITC/PI staining based flow cytometry (reference value: 0%); format: functional
[20] = molecular target: Rho-associated protein kinase 2 (Homo sapiens) (UniProt O75116); experiment: Inhibition of wild type partial length human ROCK2 (1 to 431 residues) expressed in mammalian expression system at 1 uM by KINOMEscan analysis
Chain of Rho-associated protein kinase 2 (Homo sapiens) (O75116 whole entry, looked up, the tested form may be a part): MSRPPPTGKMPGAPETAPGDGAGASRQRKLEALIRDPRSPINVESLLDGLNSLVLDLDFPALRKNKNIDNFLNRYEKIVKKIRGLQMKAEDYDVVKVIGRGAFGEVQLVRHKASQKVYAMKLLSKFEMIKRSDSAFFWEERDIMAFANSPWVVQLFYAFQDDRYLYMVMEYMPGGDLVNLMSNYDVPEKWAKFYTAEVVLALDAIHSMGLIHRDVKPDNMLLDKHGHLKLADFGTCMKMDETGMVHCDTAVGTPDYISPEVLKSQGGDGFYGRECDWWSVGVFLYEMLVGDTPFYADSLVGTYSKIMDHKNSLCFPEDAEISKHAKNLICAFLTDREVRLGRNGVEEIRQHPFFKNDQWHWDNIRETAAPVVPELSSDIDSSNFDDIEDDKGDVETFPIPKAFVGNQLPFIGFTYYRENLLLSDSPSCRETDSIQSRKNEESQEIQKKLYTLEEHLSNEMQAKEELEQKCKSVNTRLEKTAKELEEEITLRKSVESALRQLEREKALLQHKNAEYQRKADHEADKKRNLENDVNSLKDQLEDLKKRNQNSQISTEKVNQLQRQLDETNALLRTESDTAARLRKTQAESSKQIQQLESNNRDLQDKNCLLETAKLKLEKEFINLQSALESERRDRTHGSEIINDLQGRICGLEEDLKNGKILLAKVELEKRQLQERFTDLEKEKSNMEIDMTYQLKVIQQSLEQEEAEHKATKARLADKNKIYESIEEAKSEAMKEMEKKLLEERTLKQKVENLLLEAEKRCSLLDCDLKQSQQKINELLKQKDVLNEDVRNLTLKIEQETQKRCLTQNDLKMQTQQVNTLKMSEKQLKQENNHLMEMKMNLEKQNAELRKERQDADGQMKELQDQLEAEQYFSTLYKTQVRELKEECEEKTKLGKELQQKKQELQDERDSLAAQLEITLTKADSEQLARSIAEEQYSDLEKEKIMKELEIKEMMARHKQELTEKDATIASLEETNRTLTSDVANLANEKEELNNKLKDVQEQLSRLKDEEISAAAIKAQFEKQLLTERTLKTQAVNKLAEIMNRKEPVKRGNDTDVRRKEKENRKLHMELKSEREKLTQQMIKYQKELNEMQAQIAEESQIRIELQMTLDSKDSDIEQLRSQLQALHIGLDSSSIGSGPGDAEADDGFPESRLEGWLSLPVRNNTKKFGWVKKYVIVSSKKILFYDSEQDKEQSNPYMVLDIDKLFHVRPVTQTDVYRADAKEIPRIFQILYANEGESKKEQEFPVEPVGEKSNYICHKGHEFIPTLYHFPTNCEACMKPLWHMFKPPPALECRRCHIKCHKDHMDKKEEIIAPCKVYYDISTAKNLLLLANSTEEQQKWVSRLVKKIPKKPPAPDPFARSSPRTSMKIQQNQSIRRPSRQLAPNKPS

[21] = molecular target: Myosin-IIIb (Homo sapiens) (UniProt Q8WXR4); experiment: Inhibition of wild type partial length human MYO3B (1 to 357 residues) expressed in bacterial expression system at 1 uM by KINOMEscan analysis
Chain of Myosin-IIIb (Homo sapiens) (Q8WXR4 whole entry, the tested form may be a part): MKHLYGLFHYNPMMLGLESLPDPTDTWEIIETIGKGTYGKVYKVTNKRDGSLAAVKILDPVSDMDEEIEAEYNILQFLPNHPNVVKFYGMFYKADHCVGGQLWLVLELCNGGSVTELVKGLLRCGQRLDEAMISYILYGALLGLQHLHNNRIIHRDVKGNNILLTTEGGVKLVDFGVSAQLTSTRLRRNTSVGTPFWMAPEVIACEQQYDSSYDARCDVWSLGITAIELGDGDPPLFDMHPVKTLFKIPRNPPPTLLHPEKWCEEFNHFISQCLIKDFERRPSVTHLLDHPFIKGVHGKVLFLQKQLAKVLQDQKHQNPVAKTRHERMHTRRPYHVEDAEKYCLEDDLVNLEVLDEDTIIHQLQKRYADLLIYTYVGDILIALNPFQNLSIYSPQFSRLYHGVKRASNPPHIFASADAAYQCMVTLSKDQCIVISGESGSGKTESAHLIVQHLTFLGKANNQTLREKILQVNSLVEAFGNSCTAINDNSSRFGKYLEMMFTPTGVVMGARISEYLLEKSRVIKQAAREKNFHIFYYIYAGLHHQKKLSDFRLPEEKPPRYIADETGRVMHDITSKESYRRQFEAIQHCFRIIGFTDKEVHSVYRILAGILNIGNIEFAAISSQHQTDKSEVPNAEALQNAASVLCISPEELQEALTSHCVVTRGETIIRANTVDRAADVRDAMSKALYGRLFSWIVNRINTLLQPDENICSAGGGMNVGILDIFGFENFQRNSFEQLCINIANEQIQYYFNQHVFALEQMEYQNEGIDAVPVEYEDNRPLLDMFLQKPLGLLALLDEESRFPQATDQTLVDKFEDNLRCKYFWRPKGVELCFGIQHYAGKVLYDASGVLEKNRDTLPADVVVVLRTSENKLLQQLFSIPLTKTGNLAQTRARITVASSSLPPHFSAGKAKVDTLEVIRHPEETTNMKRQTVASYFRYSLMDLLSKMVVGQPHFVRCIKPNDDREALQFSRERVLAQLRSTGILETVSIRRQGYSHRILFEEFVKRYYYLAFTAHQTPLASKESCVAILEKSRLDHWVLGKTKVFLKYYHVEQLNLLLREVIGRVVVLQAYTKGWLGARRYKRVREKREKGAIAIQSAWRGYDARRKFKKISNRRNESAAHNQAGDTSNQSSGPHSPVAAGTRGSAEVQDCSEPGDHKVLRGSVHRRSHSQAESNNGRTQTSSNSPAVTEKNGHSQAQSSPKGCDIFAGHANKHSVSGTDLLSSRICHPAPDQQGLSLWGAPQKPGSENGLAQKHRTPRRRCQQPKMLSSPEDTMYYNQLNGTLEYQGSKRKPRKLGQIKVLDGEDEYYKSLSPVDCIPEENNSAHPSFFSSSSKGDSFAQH

MV4-11 [22] = experiment: Antitumor activity against human MV4-11 cells xenografted in BALB/c mouse assessed as inhibition of tumor growth at 15 mg/kg, iv qd and measured every 2 days; format: functional; details: MV4-11, 48 h, read-out: TGI
MV4-11 [23] = experiment: Induction of apoptosis in human MV4-11 cells assessed as late apoptotic cells at 2 uM incubated for 24 hrs by AnnexinV-FITC/PI staining based flow cytometry (reference value: 5.21%); format: functional
[24] = Metabolic stability of the compound in rat liver microsomes at 10 uM measured for 60 mins in presence of NADPH by LC-MS/MS analysis; format: ADME, Microsome; details: 1 h
[25] = molecular target: CDK2/Cyclin A2 (Homo sapiens) (UniProt P24941+P20248); experiment: Inhibition of CDK2/CyclinA2 (unknown origin) at 100 nM by ADP-Glo assay relative to control; format: protein-complex assay
[26] = molecular target: Cyclin-dependent kinase 9 (Homo sapiens) (UniProt P50750); experiment: Inhibition of CDK9 in human MV4-11 cells assessed as reduction in Mcl-1 mRNA expression at 0.1 to 2 uM incubated for 12 hrs by qPCR analysis; format: cell-based; details: dose 0.1-2 µM
[27] = Toxicity in BALB/c mouse xenografted with human MV4-11 cells assessed as effect on body weight at 7.5 to 15 mg/kg, iv qd; format: organism-based; details: in vivo, dose 7.5-15 mg/kg
MV4-11 [28] = experiment: Induction of apoptosis in human MV4-11 cells assessed as early apoptotic cells at 2 uM incubated for 24 hrs by AnnexinV-FITC/PI staining based flow cytometry (reference value: 1.42%); format: functional
[29] = Inhibition of CDK1/CyclinA2 (unknown origin) by ADP-Glo assay; set-up: species or system Homo sapiens

COc1cc(O)c2c(=O)cc(-c3ccc(N4CCN(C)CC4)cc3)oc2c1C1=CCN(C)CC1
inhibition [1]: 5.3% | inhibition [2]: Dose-Dependent Effect | IC50 (THP-1): 450 nM | Activity (MV4-11 [3]): Dose-Dependent Effect | Stability [4]: Stable | Activity (MV4-11 [5]): 6% | inhibition [6]: 3.3% | inhibition (MV4-11 [7]): Dose-Dependent Effect | IC50 (MCF7): 140 nM | IC50 (HL-60): 180 nM | inhibition [8]: 0% | Activity (MV4-11 [9]): 0.11% | viability at 2 µM (MV4-11 [10]): 3.12% | Activity (MV4-11 [11]): 7.1% | Activity (MV4-11 [12]): 73.9% | IC50 (SW480): 3450 nM | Activity (MV4-11 [13]): 19% | inhibition [14]: 2.2% | viability at 0.1 µM (MV4-11 [15]): 91.5% | inhibition [16]: 1.6% | Activity (MV4-11 [17]): 0% | IC50 (CDK2/Cyclin A2): 533 nM | Activity (MV4-11 [18]): 84.2% | Activity (MV4-11 [19]): 0.42% | inhibition [20]: 6% | inhibition [21]: 0% | inhibition in vivo at 15 mg/kg (MV4-11 [22]): 65% | Activity (MV4-11 [23]): 29.8% | Stability [24]: Stable | inhibition [25]: 16.7% | inhibition [26]: Active | Activity [27]: Non-Toxic | Activity (MV4-11 [28]): 67% | IC50 [29]: 4180 nM
